Results from US5235045A, “Non-azo naphthalimide dyes” (priority 1992, dated 1993).
Like-named read-outs stand apart in the source and are kept apart here.

Assays:
H9 cells [1] = experiment: Dye-mediated light kill of H9 cells (trypan blue); format: cell-based; details: Homo sapiens, 10% FCS medium, read-out: Percent Viability
Procedure: Photoinduced killing of H9 cells with Compound 1b as the mediator of photochemical toxicity were carried out according to the following protocol:
Compound 1b was added to the H9 cells (5×10^5 /ml) in medium or 100% human plasma to give dye concentrations of 0, 25 and 100 μM (1 control, 2 duplicates of both non-azo dye samples). Two 2-ml aliquots of each of the duplicated dye samples was irradiated with 10J/cm^2 total energy of 450±35 nm wavelength light in a sealed 3-ml test tube. Immediately after irradiation, the cells were centrifuged at 450×g for 10 minutes, and the pellets resuspended in the original volume of fresh RPMI-1640+10% FCS+gentamycin. The cell suspensions were transferred to a 12-well TC plate and placed in a 37° C. 5% CO2 incubator. Cell viability counts (trypan blue) were carried out at 4, 24, 48, and 72 hours post irradiation. The results of these experiments are summarized in Tables 7 (medium) and 8 (100% human plasma).
Photoinduced killing of H9 cells with Compound VII as the mediator of photochemical toxicity were carried out in 10% FCS medium according to the same general protocol using concentrations of the dye at 0, 5, 25 and 100 μM., and irradiating at 420±5 nm at 10J/cm^2 total energy.

Vero cells = experiment: Cellular toxicity in Vero cells (viral-medium suspension samples); format: cell-based
Procedure: (§1) Each sample including the stock virus were assayed on Vero cells for PFU/ml of HSV-1. The assay consisted of growing Vero cells in minimal essential medium with Hanks balanced salt solution supplemented with 10% fetal bovine serum, L-glutamine and antibiotics. Hepes buffer (2%) was added for growth in open plates (twelve well microplates from CO-star). Ten fold dilutions of each sample were prepared and 0.1 ml of the appropriate dilution for each individual sample was adsorbed at 37° C. for 1.5 hr. on a cell monolayer from which the growth medium had been removed. After the adsorption period, the cell monolayer was washed and an overlay consisting of equal volumes of 2X strength L-15 medium and 2% methylcellulose was added. Following an appropriate incubation time at 37° C. (about 4 days), the overlay medium was removed. Monolayers were fixed with methanol and stained with giemsa to elaborate the presence of plaques. The plaques were counted using a dissecting microscope at a magnification of 20X.
as §1, with “Co-star).” for “CO-star).”

H9 cells [2] = experiment: Cell viability in absence of light (trypan blue exclusion); format: cell-based, human; details: dark, 1 hour after
Description: Following the protocol of (1), above, H9 cells were stained with Compound lb, and the technique of fluorescent microscopy was used to determine visually the sites of localization of dye fluorescence in living cells. Specifically, H9 cells were counted with a hemocytometer and diluted to 5×10^5 /ml. […] Cytospin slides of the cell suspensions were made and they were examined with the fluorescence microscope (Olympus AH-2) using B excitation plus a 460 nm interference excitation filter and a 495 nm emission filter. The cells were also counted with a hemocytometer and their viability determined (see below). […] The former may reflect the diffusional component of the dye incorporation, or may reflect binding in the ER membrane. The latter may indicate lysosomal localization of pinocytosed dye as occurs with Lucifer Yellow.
Cell viability was determined using dye incorporated according to the protocol directly above. Viability was determined using a trypan blue dye exclusion test in which "live" cells with competent cell membranes exclude the dye. Table 5 summarizes the data obtained using cells exposed to Compound 1b in culture medium, and Table 6 summarizes data obtained using cells exposed to Compound VII.

[3] = Bleaching and recovery of fluorescence in aqueous suspension of Cremophor EL; format: physicochemical
Procedure: A 14.9 millimolar stock solution of Ed6Br in Cremophor EL was used to make 3 ml of a micellar Cremophor suspension having a concentration averaged over the entire sample volume of […]. A […] aliquot was removed and diluted with 2.9 ml of distilled water for measurement of fluorescence using an SLM 500C spectrofluorometer (excitation, 420 nm, emission, 520 nm). The 3 ml sample was divided into two 1.5 ml aliquots placed in quartz crusetts. One sample was irradiated with stirring with 420 # 5 nm filtered light from a xenon arc lamp with an irradiance of 20 mW/cm^2 and with the companion sample wrapped in aluminum foil (dark control) and maintained alongside of the irradiated sample. […] After the entire light treatment, both the illuminated and dark control samples were divided into two equal aliquots and held pairwise (dark+previously illuminated) at 4° C. and 20° C. in the absence of light. Aliquots of […] were taken from each sample after 18 and 43 hr and their fluorescence emission values determined using the SLM 500C instrument immediately after sampling.
In an experiment eventually following the protocol described immediately above in Part I (for Ed6Br), the light-induced bleaching of DiEd6Br with 200 J/cm^2 light exposure and recovery of its fluorescence upon standing in the dark at 22° C. were determined.

[4] = H9, light or radiation study, 4 h, hν 420±5 nm 10J/cm^2, 4 hours
[5] = 1 μM, 100% human plasma 4 hours
[6] = 5 μM, 100% human plasma 4 hours
[7] = 25 μM, 100% human plasma 4 hours

CCCCCCNc1c(Br)cc2c3c(cccc13)C(=O)N(CCCCCC)C2=O [Compound VII, 3-bromo-4-(hexyl)amino-N-hexyl-1,8-naphthalimide]
viability at 5 µM (H9 cells [1]; H9, 4 h, no hν, 4 hours): 86.5%
viability at 25 µM (H9 cells [1]; H9, 4 h, no hν, 4 hours (Table 9)): 90%
viability at 5 µM (H9 cells [1]; [4]): 0%
viability at 25 µM (H9 cells [1]; [4]): 0%
viability at 100 µM (H9 cells [1]; H9, light or radiation study, 4 h, 100 μM, hν 420±5 nm 10J/cm^2, 4 hours, light reached only approximately 2 mm): 1.8%
cellular toxicity (Vero cells; Ed6Br, 8 concentrations, not irradiated): no evidence of cellular toxicity
cellular toxicity of not previously irradiated samples (Vero cells; two concentrations, vs irradiated samples): significantly less cellular toxicity than the irradiated samples
dead cells (H9 cells [2]; [5]): 12
live cells (H9 cells [2]; [5]): 280
dead cells (H9 cells [2]; 1 μM, medium 24 hours): 23
live cells (H9 cells [2]; 1 μM, medium 24 hours): 151
dead cells (H9 cells [2]; [6]): 16
live cells (H9 cells [2]; [6]): 286
dead cells (H9 cells [2]; 10 μM, medium 24 hours): 26
live cells (H9 cells [2]; 10 μM, medium 24 hours): 104
dead cells (H9 cells [2]; [7]): 16
live cells (H9 cells [2]; [7]): 339
dead cells (H9 cells [2]; 25 μM, medium 24 hours): 38
live cells (H9 cells [2]; 25 μM, medium 24 hours): 148
dead cells (H9 cells [2]; 50 μM, medium 24 hours): 128
live cells (H9 cells [2]; 50 μM, medium 24 hours): 124
% Un-irradiated Fluorescence ([3]; 0 J/cm^2, Cremophor EL): 100%
Fluorescence Recovery in Dark ([3]; 0 hour, 4° C.): 18.2%
Fluorescence Recovery in Dark ([3]; 0 hour, 22° C.): 18.2%
% Un-irradiated Fluorescence ([3]; 10 J/cm^2, 420 nm, Cremophor EL): 97.8%
% Un-irradiated Fluorescence ([3]; 25 J/cm^2, 420 nm, Cremophor EL): 96.2%
% Un-irradiated Fluorescence ([3]; 50 J/cm^2, 420 nm, Cremophor EL): 74.9%
% Un-irradiated Fluorescence ([3]; 90 J/cm^2, 420 nm, Cremophor EL): 48.7%
irradiation induced loss of fluorescent intensity ([3]; 200 J/cm^2): about 80%
% Un-irradiated Fluorescence ([3]; 200 J/cm^2, 420 nm, Cremophor EL): 18.2%
Fluorescence Recovery in Dark ([3]; 18 hour, 4° C.): 24.6%
Fluorescence Recovery in Dark ([3]; 18 hour, 22° C.): 39.4%
Fluorescence Recovery in Dark ([3]; 43 hour, 4° C.): 36.8%
Fluorescence Recovery in Dark ([3]; 43 hour, 22° C.): 56.7%
initially activated species permanently losing fluorescence ([3]; Cremophor EL): Approximately 50%
initially activated species recovering fluorescence ([3]; Cremophor EL): Approximately 50%
ultimate fluorescent intensity regained, of initial ([3]; after 200 J/cm^2): approximately 40%
change of fluorescence emission intensity in absence of light ([3]; dark): lack of change of the value of fluorescence emission intensity
